The record followed here is patent US8609690B2, “Aryl- and heteroarylcarbonyl derivatives of substituted nortropanes, medicaments containing such compounds and their use” (Boehringer Ingelheim International GmbH, priority 2008, dated 2013).

T1 sequence (P28845 whole entry): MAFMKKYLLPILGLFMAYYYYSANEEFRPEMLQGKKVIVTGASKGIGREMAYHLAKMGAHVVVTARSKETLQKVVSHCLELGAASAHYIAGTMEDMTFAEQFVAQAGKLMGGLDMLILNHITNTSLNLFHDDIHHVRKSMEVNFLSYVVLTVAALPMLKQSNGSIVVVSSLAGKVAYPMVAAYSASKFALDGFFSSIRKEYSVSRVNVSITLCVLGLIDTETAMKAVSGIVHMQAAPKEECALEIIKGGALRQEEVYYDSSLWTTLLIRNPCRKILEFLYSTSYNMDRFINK

The first test addresses T1, 11β-HSD 1 (Homo sapiens, UniProt P28845).
T1 construct: detecting cortisol generated from cortisterone by human liver microsomes; from tissue; host or cells: human liver microsomes
Description: In vitro inhibition of 11β-HSD 1, HTRF detection of cortisol generated by human liver microsomes. The settings on record: 1 μM test compound, 100% indicates no inhibition, zero or below zero indicates complete inhibition (relative to carbenoxolone). The class given is biochemical. The method, then: Briefly, compounds were incubated for 1 hour at 37° C. in Tris buffer (20 mM tris, 5 mM EDTA, pH 6.0) containing NADPH (200 μM) and cortisone (80 nM). Cortisol generated in the reaction is then detected with a competitive immunoassay, involving two HTRF conjugates: cortisol linked to XL665 and anti-cortisol antibody labeled with Europium cryptate. The incubation period for detection reaction was typically 2 hours. The amount of cortisol is determined by reading the time-resolved fluorescence of the wells (Ex 320/75 nm; Em 615/8.5 nm and 665/7.5 nm). The ratio of the two emission signals is then calculated (Em665*10000/Em615). […] Each assay also contained a calibration curve with cortisol to transform the fluorescent data into cortisol concentrations. Percent inhibition of each compound was determined relative to the carbenoxolone signal. In Table 2 the 11β-HSD 1 inhibitory activities at 1 μM concentration of test compound, determined as described above, of the compounds listed in Table 3 are compiled, wherein 100% indicates no inhibition and a value of zero or below zero indicates complete inhibition.
In general terms: In TR-FRET formats the signal depends on donor and acceptor labels being close together.
With `COc1c(F)cc(C(=O)N2[C@@H]3CC[C@H]2C[C@@H](c2ccc(F)cc2)C3)cc1F` [Example 168, endo-(3,5-Difluoro-4-methoxy-phenyl)-[3-(4-fluoro-phenyl)-8-aza-bicyclo[3.2.1]oct-8-yl]-methanone], the “Inhibitory activity on 11β-HSD 1, % CTL” value was determined as 6 % CTL.
As to `O=C(c1ccc2nn[nH]c2c1)N1[C@@H]2CC[C@H]1C[C@@H](c1ccc(F)cc1)C2` [Example 120, endo-(3H-Benzotriazol-5-yl)-[3-(4-fluoro-phenyl)-8-aza-bicyclo[3.2.1]oct-8-yl]-methanone], the “Inhibitory activity on 11β-HSD 1, % CTL” value is reported as 25 % CTL.
The same measure, in the same setting: under `O=C1NCc2cccc(C(=O)N3[C@@H]4CC[C@H]3C[C@@H](c3ccc(F)cc3)C4)c21` [Example 95, endo-7-[3-(4-Fluoro-phenyl)-8-aza-bicyclo[3.2.1]octane-8-carbonyl]-2,3-dihydro-isoindol-1-one] stands 92 % CTL; under `COc1ccc([C@H]2C[C@H]3CC[C@@H](C2)N3C(=O)c2ccc3c(c2)OCCO3)cc1` [Example 134, endo-(2,3-Dihydro-benzo[1,4]dioxin-6-yl)-[3-(4-methoxy-phenyl)-8-aza-bicyclo[3.2.1]oct-8-yl]-methanone], −5 % CTL.
The same measure, in the same setting: to `O=C(c1ccc2c(c1)CCCN2)N1[C@@H]2CC[C@H]1C[C@@H](c1ccc(F)cc1)C2` [Example 54, endo-[3-(4-Fluoro-phenyl)-8-aza-bicyclo[3.2.1]oct-8-yl]-(1,2,3,4-tetrahydro-quinolin-6-yl)-methanone] belongs −56 % CTL; to `O=C1Cc2ccc(C(=O)N3[C@@H]4CC[C@H]3C[C@@H](c3ccc(F)cc3)C4)cc2N1` [Example 46, endo-6-[3-(4-Fluoro-phenyl)-8-aza-bicyclo[3.2.1]octane-8-carbonyl]-1,3-dihydro-indol-2-one], 97 % CTL; to `O=C(c1cccc(F)c1)N1[C@@H]2CC[C@H]1C[C@@H](c1ccc(F)cc1)C2` [Example 104, endo-(3-Fluoro-phenyl)-[3-(4-fluoro-phenyl)-8-aza-bicyclo[3.2.1]oct-8-yl]-methanone], 43 % CTL.
On the same count and under the same terms, to `COc1cc(C(=O)N2[C@@H]3CC[C@H]2C[C@@H](c2ccc(F)cc2)C3)cc(Cl)c1O` [Example 175, endo-(3-Chloro-4-hydroxy-5-methoxy-phenyl)-[3-(4-fluoro-phenyl)-8-aza-bicyclo[3.2.1]oct-8-yl]-methanone] belongs −37 % CTL; to `CC(C)CN1Cc2cccc(C(=O)N3[C@@H]4CC[C@H]3C[C@@H](c3ccc(F)cc3)C4)c2C1=O` [Example 29, endo-7-[3-(4-Fluoro-phenyl)-8-aza-bicyclo[3.2.1]octane-8-carbonyl]-2-isobutyl-2,3-dihydro-isoindol-1-one], 97 % CTL; to `Cc1cc(C(=O)N2[C@@H]3CC[C@H]2C[C@@H](c2ccc(F)cc2)C3)ccc1O` [Example 166, endo-[3-(4-Fluoro-phenyl)-8-aza-bicyclo[3.2.1]oct-8-yl]-(4-hydroxy-3-methyl-phenyl)-methanone], −33 % CTL.
Turning to `O=C(c1cc(F)cc(F)c1)N1[C@@H]2CC[C@H]1C[C@@H](c1ccc(F)cc1)C2` [Example 12, endo-(3,5-Difluoro-phenyl)-[3-(4-fluoro-phenyl)-8-aza-bicyclo[3.2.1]oct-8-yl]-methanone], the “Inhibitory activity on 11β-HSD 1, % CTL” value was found to be 85 % CTL.
Same read-out and setting: under `O=C(c1ccc2c(c1)OCCO2)N1C2CCC1CC(c1ccc(Cl)cc1)C2` (centres unmarked) [Example 151, [3-(4-Chloro-phenyl)-8-aza-bicyclo[3.2.1]oct-8-yl]-(2,3-dihydro-benzo[1,4]dioxin-6-yl)-methanone] stands −44 % CTL; under `O=C(c1ccc(O)cc1)N1[C@@H]2CC[C@H]1C[C@@H](c1ccc(F)cc1)C2` [Example 130, endo-[3-(4-Fluoro-phenyl)-8-aza-bicyclo[3.2.1]oct-8-yl]-(4-hydroxy-phenyl)-methanone], −47 % CTL.
In the case of `Cc1ccc([C@H]2C[C@H]3CC[C@@H](C2)N3C(=O)c2cscn2)cc1` [Example 13, endo-Thiazol-4-yl-(3-p-tolyl-8-aza-bicyclo[3.2.1]oct-8-yl)-methanone], the “Inhibitory activity on 11β-HSD 1, % CTL” value turned out to be 62 % CTL.
For `O=C(c1ccccc1Cl)N1[C@@H]2CC[C@H]1C[C@@H](c1ccc(F)cc1)C2` [Example 111, endo-(2-Chloro-phenyl)-[3-(4-fluoro-phenyl)-8-aza-bicyclo[3.2.1]oct-8-yl]-methanone], the “Inhibitory activity on 11β-HSD 1, % CTL” value is 61 % CTL.
As to `O=C(c1ccc2c(c1)OCCO2)N1[C@@H]2CC[C@H]1C[C@@H](c1ccc(F)cc1F)C2` [Example 160, endo-[3-(2,4-Difluoro-phenyl)-8-aza-bicyclo[3.2.1]oct-8-yl]-(2,3-dihydro-benzo[1,4]dioxin-6-yl)-methanone], the “Inhibitory activity on 11β-HSD 1, % CTL” value was −26 % CTL.
The same measure, in the same setting: under `Cn1c(=O)[nH]c2cc(C(=O)N3[C@@H]4CC[C@H]3C[C@@H](c3ccc(F)cc3)C4)ccc21` [Example 59, endo-5-[3-(4-Fluoro-phenyl)-8-aza-bicyclo[3.2.1]octane-8-carbonyl]-1-methyl-1,3-dihydro-benzoimidazol-2-one] stands 95 % CTL; under `O=C(c1cccc(Cl)c1)N1[C@@H]2CC[C@H]1C[C@@H](c1ccc(F)cc1)C2` [Example 125, endo-(3-Chloro-phenyl)-[3-(4-fluoro-phenyl)-8-aza-bicyclo[3.2.1]oct-8-yl]-methanone], 7 % CTL; under `Cc1[nH]c2ccc(C(=O)N3[C@@H]4CC[C@H]3C[C@@H](c3ccc(F)cc3)C4)cc2c1C` [Example 132, endo-(2,3-Dimethyl-1H-indol-5-yl)-[3-(4-fluoro-phenyl)-8-aza-bicyclo[3.2.1]oct-8-yl]-methanone], −36 % CTL.
The same measure, in the same setting: to `O=C(c1n[nH]c2c1CCC2)N1[C@@H]2CC[C@H]1C[C@@H](c1ccc(F)cc1)C2` [Example 6, endo-[3-(4-Fluoro-phenyl)-8-aza-bicyclo[3.2.1]oct-8-yl]-(1,4,5,6-tetrahydro-cyclopentapyrazol-3-yl)-methanone] belongs 88 % CTL; to `Cc1cc2cc(C(=O)N3[C@@H]4CC[C@H]3C[C@@H](c3ccc(F)cc3)C4)ccc2[nH]1` [Example 50, endo-[3-(4-Fluoro-phenyl)-8-aza-bicyclo[3.2.1]oct-8-yl]-(2-methyl-1H-indol-5-yl)-methanone], 6 % CTL; to `O=C1NCCN1c1cccc(C(=O)N2[C@@H]3CC[C@H]2C[C@@H](c2ccc(F)cc2)C3)c1` [Example 60, endo-1-{3-[3-(4-Fluoro-phenyl)-8-aza-bicyclo[3.2.1]octane-8-carbonyl]-phenyl}-imidazolidin-2-one], 63 % CTL.
Same read-out and setting: to `O=C(c1ccc(F)cc1)N1[C@@H]2CC[C@H]1C[C@@H](c1ccc(F)cc1)C2` [Example 103, endo-(4-Fluoro-phenyl)-[3-(4-fluoro-phenyl)-8-aza-bicyclo[3.2.1]oct-8-yl]-methanone] belongs 32 % CTL.
Turning to `CC(=O)NCc1ccc(C(=O)N2[C@@H]3CC[C@H]2C[C@@H](c2ccc(F)cc2)C3)cc1` [Example 71, endo-N-{4-[3-(4-Fluoro-phenyl)-8-aza-bicyclo[3.2.1]octane-8-carbonyl]-benzyl}-acetamide], the “Inhibitory activity on 11β-HSD 1, % CTL” value worked out at 41 % CTL.
On the same count and under the same terms, to `O=C(c1n[nH]c2c1CCCC2)N1[C@@H]2CC[C@H]1C[C@@H](c1ccc(F)cc1)C2` [Example 23, endo-[3-(4-Fluoro-phenyl)-8-aza-bicyclo[3.2.1]oct-8-yl]-(4,5,6,7-tetrahydro-1H-indazol-3-yl)-methanone] belongs 83 % CTL; to `Cn1c(=O)n(C)c2cc(C(=O)N3[C@@H]4CC[C@H]3C[C@@H](c3ccc(F)cc3)C4)ccc21` [Example 39, endo-5-[3-(4-Fluoro-phenyl)-8-aza-bicyclo[3.2.1]octane-8-carbonyl]-1,3-dimethyl-1,3-dihydro-benzoimidazol-2-one], 43 % CTL; to `O=C(c1ccc(OC2CSC2)cc1)N1[C@@H]2CC[C@H]1C[C@@H](c1ccc(F)cc1)C2` [Example 31, endo-[3-(4-Fluoro-phenyl)-8-aza-bicyclo[3.2.1]oct-8-yl]-[4-(thietan-3-yloxy)-phenyl]-methanone], 86 % CTL.
Consider `O=C(c1ccc(O)c(F)c1)N1[C@@H]2CC[C@H]1C[C@@H](c1ccc(F)cc1)C2` [Example 169, endo-(3-Fluoro-4-hydroxy-phenyl)-[3-(4-fluoro-phenyl)-8-aza-bicyclo[3.2.1]oct-8-yl]-methanone], for which the “Inhibitory activity on 11β-HSD 1, % CTL” value is −25 % CTL.

The same test, now with this note: 1 μM test compound, 100% indicates no inhibition, zero or below zero indicates complete inhibition (relative to carbenoxolone), 1 µM.
For the compound `NC(=O)c1ccc(C(=O)N2[C@@H]3CC[C@H]2C[C@@H](c2ccc(F)cc2)C3)cc1` [Example 2, endo-4-[3-(4-Fluoro-phenyl)-8-aza-bicyclo[3.2.1]octane-8-carbonyl]-benzamide], the “Inhibitory activity on 11β-HSD 1, % CTL” value is listed as −27 % CTL.
